The values that follow come from PMC7567103 (Nature Communications, 2020).

pEC50, pIC50: −log10 of the molar value.

The target in one assay is T1, GHRHR A271F (Homo sapiens, UniProt Q02643, A271F).
T1 construct: GHRHR(23-423)-; HA signal peptide (replaces native signal M1-G22) (N); expressed in transfected cells; host or cells: HEK 293T, pcDNA3.1, transient
Description: cAMP accumulation, A271F. It is filed as cell-based. Conditions: mean ± SEM, n ≥ 3. An excerpt:
(§1) Fig. 2 Molecular recognition of GHRH by GHRHR and comparison of that with LA-PTH–PTH1R and GLP-1–GLP-1R. a Detailed interaction between GHRH and the TMD pocket of GHRHR with hydrogen bonds shown as dotted lines. b, c Pairwise comparison of GHRH bound to GHRHR with GLP-1 and LA-PTH in complex with their corresponding receptors, showing the relative positions of peptide ligands. Lime green, GHRHR; blue, GHRH; red, PTH1R and LA-PTH; purple, GLP-1R and GLP-1. d–f The effects of mutation in the ligand-binding pocket on cAMP accumulation. cAMP levels were measured in wild-type (WT) receptor and alanine mutants in ECL1, 2, and 3 (d), TM1, 2, and 3 (e), and TM5, 6, and 7 (f). cAMP signals were normalized to the maximum response of WT and concentration–response curves were analyzed using a three-parameter logistic equation. Data shown are means ± S.E.M. of at least three independent experiments (n = 3–5), conducted in triplicate. Source data are provided as a Source data file.
(§2) GHRH-stimulated cAMP accumulation was measured by a LANCE Ultra cAMP kit (PerkinElmer). […] After 1 h RT incubation, TR-FRET signals (excitation: 320 nm, emission: 615 and 665 nm) were measured by an EnVision (PerkinElmer).

In the next assay the target is T2, GHRHR(23-423) (WT) (Homo sapiens, UniProt Q02643).
T2 construct: 24 h after transfection with GHRHR(23-423), GHRHR(23-405), GHRHR(23-405)-LgBiT-2MBP, or HA-Flag-GHRHR (WT and mutants); HA signal peptide (replaces native signal M1-G22) (N); expressed in transfected cells; host or cells: HEK 293 T
T2 sequence (Q02643 23-423): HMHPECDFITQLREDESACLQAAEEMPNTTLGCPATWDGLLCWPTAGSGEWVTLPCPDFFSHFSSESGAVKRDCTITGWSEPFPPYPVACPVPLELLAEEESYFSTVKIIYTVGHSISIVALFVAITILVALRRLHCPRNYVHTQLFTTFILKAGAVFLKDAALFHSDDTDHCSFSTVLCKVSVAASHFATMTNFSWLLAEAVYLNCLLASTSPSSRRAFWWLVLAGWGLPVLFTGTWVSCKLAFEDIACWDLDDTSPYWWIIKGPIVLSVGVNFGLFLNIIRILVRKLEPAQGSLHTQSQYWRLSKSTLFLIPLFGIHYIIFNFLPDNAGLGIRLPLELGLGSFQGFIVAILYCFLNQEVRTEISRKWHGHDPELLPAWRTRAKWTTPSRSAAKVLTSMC
Description: whole cell binding, competitive inhibition of 125I-GHRH (Supplementary Fig. 2c). Conditions: competition with 80 pM 125I-GHRH; whole HEK 293T cells, RT 3 h; mean ± SEM, n = 7-8. The protocol:
This assay was conducted in 96-well Iso-plates (PerkinElmer) coated with poly-D-lysine hydrobromide (Sigma-Aldrich). Twenty-four hour after transfection with GHRHR(23-423) or GHRHR(23-405)-LgBiT-2MBP, HEK 293 T cells were washed twice, and incubated with blocking buffer (DMEM medium supplemented with 33 mM HEPES, and 0.1% (w/v) BSA, pH 7.4) for 2 h at 37 °C. Then, radiolabeled ^125I-GHRH (80 pM, Phoenix Biotech) and seven decreasing concentrations of unlabeled peptide (10 μM, […]) were added and competitively reacted with the cells in binding buffer (PBS supplemented with 10% (w/v) BSA, pH 7.4) at RT for 3 h. Cells were washed with ice-cold PBS and lysed by 50 μL lysis buffer (PBS supplemented with 20 mM Tris-HCl and 1% (v/v) Triton X-100, pH 7.4). Finally, 150 μL of scintillation cocktail (OptiPhase SuperMix, PerkinElmer) was employed and radioactivity (counts per minute) read in a scintillation counter (MicroBeta[2] plate counter, PerkinElmer).
93 of transfection. Data are normalized by the WT receptor and fitted with a three-
94 parameter logistic equation. All values are means ± S.E.M. of at least three […]
Binding affinity is quantified by
97 reduction of radioactivity (counts per minute, CPM) and normalized to the […]
231 Binding data were analyzed using a three-parameter logistic equation to […]
234 determine statistical difference. *P<0.01; ND, not determined.

The next assay concerns the target T3, GHRHR W282A (Homo sapiens, UniProt Q02643, W282A).
T3 construct: GHRHR(23-423)-; HA signal peptide (replaces native signal M1-G22) (N); expressed in transfected cells; host or cells: HEK 293T, pcDNA3.1, transient
Description: cAMP accumulation, W282A. To be noted: mean ± SEM, n ≥ 3. It is filed as cell-based.
Text: as §1, §2

T1 sequence (Q02643 23-423 A271F): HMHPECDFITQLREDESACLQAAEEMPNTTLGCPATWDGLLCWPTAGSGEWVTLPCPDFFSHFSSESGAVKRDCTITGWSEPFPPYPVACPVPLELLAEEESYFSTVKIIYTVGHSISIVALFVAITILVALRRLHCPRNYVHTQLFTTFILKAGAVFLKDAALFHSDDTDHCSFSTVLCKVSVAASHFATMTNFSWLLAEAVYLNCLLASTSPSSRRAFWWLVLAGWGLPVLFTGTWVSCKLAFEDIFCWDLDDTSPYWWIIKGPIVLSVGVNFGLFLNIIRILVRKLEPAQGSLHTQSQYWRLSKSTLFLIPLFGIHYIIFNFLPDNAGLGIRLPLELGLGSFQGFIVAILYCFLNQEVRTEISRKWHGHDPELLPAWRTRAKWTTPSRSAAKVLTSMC
T3 sequence (Q02643 23-423 W282A): as the sequence (Q02643 23-423 A271F) above, with F249A, W260A counted along it

On to `CC[C@H](C)[C@H](NC(=O)[C@H](C)NC(=O)[C@H](CC(=O)O)NC(=O)[C@H](C)NC(=O)[C@@H](N)Cc1ccc(O)cc1)C(=O)N[C@@H](Cc1ccccc1)C(=O)N[C@H](C(=O)N[C@@H](CC(N)=O)C(=O)N[C@@H](CO)C(=O)N[C@@H](Cc1ccc(O)cc1)C(=O)N[C@@H](CCCNC(=N)N)C(=O)N[C@@H](CCCCN)C(=O)N[C@H](C(=O)N[C@@H](CC(C)C)C(=O)NCC(=O)N[C@@H](CCC(N)=O)C(=O)N[C@@H](CC(C)C)C(=O)N[C@@H](CO)C(=O)N[C@@H](C)C(=O)N[C@@H](CCCNC(=N)N)C(=O)N[C@@H](CCCCN)C(=O)N[C@@H](CC(C)C)C(=O)N[C@@H](CC(C)C)C(=O)N[C@@H](CCC(N)=O)C(=O)N[C@@H](CC(=O)O)C(=O)N[C@H](C(=O)N[C@@H](CCSC)C(=O)N[C@@H](CO)C(=O)N[C@@H](CCCNC(=N)N)C(=O)N[C@@H](CCC(N)=O)C(=O)N[C@@H](CCC(N)=O)C(=O)NCC(=O)N[C@@H](CCC(=O)O)C(=O)N[C@@H](CO)C(=O)N[C@@H](CC(N)=O)C(=O)N[C@@H](CCC(N)=O)C(=O)N[C@@H](CCC(=O)O)C(=O)N[C@@H](CCCNC(=N)N)C(=O)NCC(=O)N[C@@H](C)C(=O)N[C@@H](CCCNC(=N)N)C(=O)N[C@@H](C)C(=O)N[C@@H](CCCNC(=N)N)C(=O)N[C@@H](CC(C)C)C(N)=O)[C@@H](C)CC)C(C)C)[C@@H](C)O` [GHRH, Growth hormone-releasing hormone], for which, at GHRHR A271F, the pEC50 is 9.73 and the Emax was 103.70±0.64 % WT. The same compound gave a pIC50 at GHRHR(23-423) (WT) of 8.56. On GHRHR W282A, this compound showed a pEC50 of 7.88 and an Emax of 101.88±5.62 % WT.
